Assay results reported in patent US11274082B2, “Tead inhibitors and uses thereof” (Ikena Oncology, Inc., priority 2019, dated 2022).
Where two headings read alike, the source gives them in different places.

Legend:
H28 = experiment: Anti-proliferation assay in H28 cells; format: cell-based; settings: Homo sapiens, NCI-H28
Method: (§1) Certain compounds were tested in TEAD reporter assay, and in H226 and H28. A: EC50<0.1 uM; B: 0.1 uM≤EC50≤0.5 uM; C: EC50>0.5 uM.
(§2) Individual cell lines were grown in medium according to supplier instructions and seeded into 96-well plates at a density that ensured logarithmic growth over 72 hours. TEAD inhibitor compounds were administered to cells at a top concentration of 10 μm and subsequently a 10 point 3-fold serial dilution was conducted. After 72 hours, proliferation was quantified using Cell TITERGLO™ (Promega, Inc.) and compared to vehicle control. IC50 and EC50 values were generated using XLFit curve fitting software.

H226 = experiment: Anti-proliferation assay in H226 cells; format: cell-based; settings: Homo sapiens
Method: as §1, §2

TEAD = TEAD reporter assay (Hippo Pathway TEAD Reporter - MCF7 cell line, luciferase); format: cell-based; settings: Homo sapiens
Excerpt: TEAD inhibition can be assayed using Hippo Pathway TEAD Reporter—MCF7 Cell Line (BPS Bioscience, Catalog #: 60618).
The TEAD Reporter—MCF7 cell line contains the firefly luciferase gene under the control of TEAD responsive elements stably integrated into the human breast cancer cell line, MCF7. Inside the cells, basal unphosphorylated YAP/TAZ remains in the nucleus and induces the constitutive expression of luciferase reporter. The cell line is validated for the inhibition of the expression of luciferase reporter by the activators of the Hippo pathway.
• 1) Harvest TEAD Reporter—MCF7 cells from culture in growth medium and seed cells at a density of 35,000 cells per well into white clear-bottom 96-well microplate in 45 μl of assay medium. • 2) Incubate cells at 37° C. in a CO2 incubator for overnight. • 3) Dilute the activators (H2O2 or okadaic acid) stock in assay medium. Add 5 μl of diluted activators to the wells. The final concentration of DMSO in assay medium is 0.1%. • 4) Add 5 μl of assay medium with same concentration of DMSO without activator to control wells. • 5) Add 50 μl of assay medium with DMSO to cell-free control wells (for determining background luminescence). • 6) Set up each treatment in at least triplicate. • 7) Incubate cells at 37° C. in a CO2 incubator for 5-6 hours. • 8) Perform luciferase assay using the ONE-Step™ Luciferase Assay System following the protocol provided: Add 100 μl of ONE-Step™ Luciferase reagent per well and rock at room temperature for ˜15 minutes. Measure luminescence using a luminometer. • 9) Data Analysis: Obtain the background-subtracted luminescence by subtracting the average background luminescence (cell-free control wells) from the luminescence reading of all wells.
as §1

[1] = Mouse pharmacokinetics study; format: in vivo; settings: BALB/c mice, 10 mg/kg by oral gavage in 5% DMS/95% PEG400, plasma
Method: Formulated compounds were administered intravenously or orally via gavage to BALB/c mice. Typically, at 0.167, 0.5, 1, 2, 4, 6, 12, and 24 hours post-dose, blood was collected and processed to plasma by centrifugation and stored at −80° C. until analysis. Internal standard was added to each sample prior to protein precipitation with acetonitrile or TCA. The precipitates were filtered through a filter plate and the samples were analyzed by LC/MS/MS. A standard curve was prepared in plasma from typically from 1.0 ng/mL to 3000 ng/mL and processed in the same manner as the samples. Sample analysis was typically performed on a suitable LC/MS/MS system fitted with an analytical UPLC column and compounds eluted from the analytical column with a gradient from 30-95% 0.1% formic acid (v/v) in ACN: 0.1% formic acid (v/v) in water. Mass spectrometric detection of test compound and the internal standard was performed by MRM in positive mode. The pharmacokinetics of each compound were analyzed by Phoenix WinNonlin software (Pharsight, St. Louis, Mo.) via noncompartmental analysis.

[2] = NCI-H226, H226 cells, read-out: H226 EC50
[3] = TEAD Reporter - MCF7 cells, read-out: TEAD Reporter Assay EC50

Q: With `CNS(=O)(=O)c1ccc(NCc2ccccc2)c(-c2nnn(C)n2)c1` [I-16, 4-(benzylamino)-N-methyl-3-(2-methyltetrazol-5-yl)benzenesulfonamide] as the compound, how does the EC50 (H28) read?
A: > 500 nM

Q: What about the EC50 (H226; [2]) of the same compound?
A: > 0.5 µM

Q: What about the EC50 (TEAD; [3]) of the same compound?
A: 0.1 to 0.5 µM

Q: With `Cn1nnc(-c2cc(B(O)O)ccc2Nc2cccc(C(F)(F)F)c2)n1` [I-17, [3-(2-methyltetrazol-5-yl)-4-[3-(trifluoromethyl)anilino]phenyl]boronic acid] as the compound, how does the EC50 (H28) read?
A: > 500 nM

Q: What about the EC50 (H226; [2]) of the same compound?
A: > 0.5 µM

Q: And the EC50 (TEAD; [3])?
A: > 0.5 µM

Q: With `CNS(=O)(=O)c1ccc(NCc2ccccc2)c(-c2cn(C)cn2)c1` [I-27, 4-(Benzylamino)-N-methyl-3-(1-methylimidazol-4-yl)benzenesulfonamide] as the compound, how does the EC50 (H28) read?
A: > 500 nM

Q: What about the EC50 (H226; [2]) of the same compound?
A: < 0.1 µM

Q: And the EC50 (TEAD; [3])?
A: < 0.1 µM

Q: What about the AUC(0-t) [1] of the same compound?
A: 2250 ng·h/mL

Q: And the Cmax [1]?
A: 1040 ng/mL

Q: What does the source list for `CNS(=O)(=O)c1ccc(N[C@H](C)c2ccccc2)c(-c2cn(C)cn2)c1` [I-30, N-Methyl-3-(1-methylimidazol-4-yl)-4-[[(1R)-1-phenylethyl]amino]benzenesulfonamide]?
A: EC50 (H226; [2]): < 0.1 µM; EC50 (TEAD; [3]): < 0.1 µM; AUC(0-t) [1]: 887 ng·h/mL; Cmax [1]: 882 ng/mL

Q: With `CNS(=O)(=O)c1ccc(NCc2cccc(C(F)(F)F)c2)c(-c2cn(C)cn2)c1` [I-31, N-Methyl-3-(1-methyl-1H-imidazol-4-yl)-4-((3-(trifluoromethyl)benzyl)amino)benzenesulfonamide] as the compound, how does the EC50 (H226; [2]) read?
A: < 0.1 µM

Q: And the EC50 (TEAD; [3])?
A: < 0.1 µM

Q: And the AUC(0-t) [1]?
A: 2520 ng·h/mL

Q: What about the Cmax [1] of the same compound?
A: 774 ng/mL

Q: Which results are given for `CNS(=O)(=O)c1ccc(NCc2ccc(C(F)(F)F)cc2)c(-c2cn(C)cn2)c1` [I-32, N-Methyl-3-(1-methyl-1H-imidazol-4-yl)-4-((4-(trifluoromethyl)benzyl)amino)benzenesulfonamide]?
A: EC50 (H226; [2]): < 0.1 µM; EC50 (TEAD; [3]): < 0.1 µM; AUC(0-t) [1]: 4580 ng·h/mL; Cmax [1]: 1090 ng/mL

Q: Which EC50 (H226; [2]) does the source give for `CNS(=O)(=O)c1ccc(Nc2cc(C(F)(F)F)ccn2)c(-c2cn(C)cn2)c1` [I-33, N-Methyl-3-(1-methylimidazol-4-yl)-4-[[4-(trifluoromethyl)-2-pyridyl]amino]benzenesulfonamide] here?
A: < 0.1 µM

Q: What about the EC50 (TEAD; [3]) of the same compound?
A: < 0.1 µM

Q: What about the AUC(0-t) [1] of the same compound?
A: 731 ng·h/mL

Q: What about the Cmax [1] of the same compound?
A: 420 ng/mL

Q: Which EC50 (H226; NCI-H226, read-out: H226 EC50 (uM)) does the source give for `CNS(=O)(=O)c1cnc(Nc2cccc(C(F)(F)F)c2)c(-c2cn(C)cn2)c1` [I-36, N-Methyl-5-(1-methylimidazol-4-yl)-6-[3-(trifluoromethyl)anilino]pyridine-3-sulfonamide] here?
A: < 0.1 µM

Q: And the EC50 (TEAD; MCF7, read-out: TEAD Reporter Assay EC50 (uM))?
A: < 0.1 µM

Q: And the AUC(0-t) [1]?
A: 595 ng·h/mL

Q: What about the Cmax [1] of the same compound?
A: 213 ng/mL

Q: Which results are given for `CCNS(=O)(=O)c1ccc(Nc2cc(C(F)(F)F)ccn2)c(-c2cn(C)cn2)c1` [I-37, N-Ethyl-3-(1-methylimidazol-4-yl)-4-[[4-(trifluoromethyl)-2-pyridyl]amino]benzenesulfonamide]?
A: EC50 (H226; [2]): < 0.1 µM; EC50 (TEAD; [3]): < 0.1 µM; AUC(0-t) [1]: 521 ng·h/mL; Cmax [1]: 351 ng/mL

Q: Which EC50 (H226; [2]) does the source give for `CNS(=O)(=O)c1ccc(Nc2ccc(C(F)(F)F)cn2)c(-c2cn(C)cn2)c1` [I-38, N-Methyl-3-(1-methylimidazol-4-yl)-4-[[5-(trifluoromethyl)-2-pyridyl]amino]benzenesulfonamide] here?
A: < 0.1 µM

Q: What about the EC50 (TEAD; [3]) of the same compound?
A: < 0.1 µM

Q: And the AUC(0-t) [1]?
A: 25900 ng·h/mL

Q: What about the Cmax [1] of the same compound?
A: 1620 ng/mL

Q: With `CNS(=O)(=O)c1ccc(Nc2ccc(C(F)(F)F)cn2)c(-c2cn(C(C)C)cn2)c1` [I-85, 3-(1-isopropylimidazol-4-yl)-N-methyl-4-[[5-(trifluoromethyl)-2-pyridyl]amino]benzenesulfonamide] as the compound, how does the EC50 (H226; [2]) read?
A: < 0.1 µM

Q: And the EC50 (TEAD; [3])?
A: < 0.1 µM

Q: For `CNS(=O)(=O)c1ccc(Nc2ccc(C#N)cn2)c(-c2cn(C)cn2)c1` [I-86, 4-[(5-Cyano-2-pyridyl)amino]-N-methyl-3-(1-methylimidazol-4-yl)benzenesulfonamide], which EC50 (H226; [2]) is on record?
A: 0.1 to 0.5 µM

Q: And the EC50 (TEAD; [3])?
A: > 0.5 µM

Q: Which AUC(0-t) [1] does the source give for `CNS(=O)(=O)c1ccc(Nc2cccc(C(F)(F)F)c2)c(-c2cn(C)cn2)c1` [P-12] here?
A: 2330 ng·h/mL

Q: And the Cmax [1]?
A: 558 ng/mL

Q: With `CNS(=O)(=O)c1ccc(Nc2cccc(C(F)(F)F)c2)c(-c2nnn(C)n2)c1` [P-14] as the compound, how does the AUC(0-t) [1] read?
A: 622 ng·h/mL

Q: What about the Cmax [1] of the same compound?
A: 210 ng/mL
